Data from ChEMBL document CHEMBL4507279, “Data for DCP probe BI-9627” (2021).

Experiments:
[1] = test system: Tyrosine-protein kinase ABL1 (Homo sapiens), P00519 [H396P]; details: Compound concentration 1000.0 nM
[2] = target: Mitogen-activated protein kinase kinase kinase 15 (Homo sapiens) (UniProt Q6ZN16); details: Compound concentration 1000.0 nM
[3] = target: Serine/threonine-protein kinase mTOR (Homo sapiens) (UniProt P42345); details: Compound concentration 1000.0 nM
[4] = target: G protein-coupled receptor kinase 3 (Homo sapiens) (UniProt P35626); details: Compound concentration 1000.0 nM
[5] = target: Epithelial discoidin domain-containing receptor 1 (Homo sapiens) (UniProt Q08345); details: Compound concentration 1000.0 nM
[6] = target: Serine/threonine-protein kinase tousled-like 2 (Homo sapiens) (UniProt Q86UE8); details: Compound concentration 1000.0 nM
[7] = test system: Epidermal growth factor receptor (Homo sapiens), P00533 [UNDEFINED MUTATION]; details: Compound concentration 1000.0 nM
Epidermal growth factor receptor (Homo sapiens), P00533 [UNDEFINED MUTATION], sequence (P00533 whole entry, looked up, change not shown): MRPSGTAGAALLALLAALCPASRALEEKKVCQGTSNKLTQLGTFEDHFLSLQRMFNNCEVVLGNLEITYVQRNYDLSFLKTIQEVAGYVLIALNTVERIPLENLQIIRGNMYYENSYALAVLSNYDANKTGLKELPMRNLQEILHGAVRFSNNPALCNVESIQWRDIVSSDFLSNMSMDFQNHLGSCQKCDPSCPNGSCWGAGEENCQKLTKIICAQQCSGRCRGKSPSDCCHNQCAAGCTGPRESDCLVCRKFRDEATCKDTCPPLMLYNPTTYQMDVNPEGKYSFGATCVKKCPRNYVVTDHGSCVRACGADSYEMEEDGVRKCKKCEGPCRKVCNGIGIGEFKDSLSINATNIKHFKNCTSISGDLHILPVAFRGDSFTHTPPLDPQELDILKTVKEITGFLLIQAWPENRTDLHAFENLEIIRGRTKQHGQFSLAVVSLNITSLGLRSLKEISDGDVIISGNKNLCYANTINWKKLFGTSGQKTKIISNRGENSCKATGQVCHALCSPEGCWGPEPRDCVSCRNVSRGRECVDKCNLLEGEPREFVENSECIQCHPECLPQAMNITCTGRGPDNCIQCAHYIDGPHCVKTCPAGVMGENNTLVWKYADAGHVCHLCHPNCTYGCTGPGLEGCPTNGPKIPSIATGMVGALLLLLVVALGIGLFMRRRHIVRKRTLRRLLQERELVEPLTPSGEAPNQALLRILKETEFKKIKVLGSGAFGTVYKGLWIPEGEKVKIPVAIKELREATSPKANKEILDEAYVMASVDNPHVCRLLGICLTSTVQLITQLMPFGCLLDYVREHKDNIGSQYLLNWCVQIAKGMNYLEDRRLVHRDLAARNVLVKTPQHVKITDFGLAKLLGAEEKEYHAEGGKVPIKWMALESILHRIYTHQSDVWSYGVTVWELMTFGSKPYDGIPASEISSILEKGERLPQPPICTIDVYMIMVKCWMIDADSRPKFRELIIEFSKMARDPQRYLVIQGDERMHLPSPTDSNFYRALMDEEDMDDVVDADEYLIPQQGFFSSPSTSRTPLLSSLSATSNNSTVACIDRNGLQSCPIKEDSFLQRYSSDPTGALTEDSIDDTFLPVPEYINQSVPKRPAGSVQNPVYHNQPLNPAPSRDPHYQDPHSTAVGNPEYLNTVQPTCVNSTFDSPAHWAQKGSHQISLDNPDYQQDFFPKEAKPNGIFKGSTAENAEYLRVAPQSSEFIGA

[8] = target: Homeodomain-interacting protein kinase 1 (Homo sapiens) (UniProt Q86Z02); details: Compound concentration 1000.0 nM
Homeodomain-interacting protein kinase 1 (Homo sapiens), sequence (Q86Z02 whole entry, looked up): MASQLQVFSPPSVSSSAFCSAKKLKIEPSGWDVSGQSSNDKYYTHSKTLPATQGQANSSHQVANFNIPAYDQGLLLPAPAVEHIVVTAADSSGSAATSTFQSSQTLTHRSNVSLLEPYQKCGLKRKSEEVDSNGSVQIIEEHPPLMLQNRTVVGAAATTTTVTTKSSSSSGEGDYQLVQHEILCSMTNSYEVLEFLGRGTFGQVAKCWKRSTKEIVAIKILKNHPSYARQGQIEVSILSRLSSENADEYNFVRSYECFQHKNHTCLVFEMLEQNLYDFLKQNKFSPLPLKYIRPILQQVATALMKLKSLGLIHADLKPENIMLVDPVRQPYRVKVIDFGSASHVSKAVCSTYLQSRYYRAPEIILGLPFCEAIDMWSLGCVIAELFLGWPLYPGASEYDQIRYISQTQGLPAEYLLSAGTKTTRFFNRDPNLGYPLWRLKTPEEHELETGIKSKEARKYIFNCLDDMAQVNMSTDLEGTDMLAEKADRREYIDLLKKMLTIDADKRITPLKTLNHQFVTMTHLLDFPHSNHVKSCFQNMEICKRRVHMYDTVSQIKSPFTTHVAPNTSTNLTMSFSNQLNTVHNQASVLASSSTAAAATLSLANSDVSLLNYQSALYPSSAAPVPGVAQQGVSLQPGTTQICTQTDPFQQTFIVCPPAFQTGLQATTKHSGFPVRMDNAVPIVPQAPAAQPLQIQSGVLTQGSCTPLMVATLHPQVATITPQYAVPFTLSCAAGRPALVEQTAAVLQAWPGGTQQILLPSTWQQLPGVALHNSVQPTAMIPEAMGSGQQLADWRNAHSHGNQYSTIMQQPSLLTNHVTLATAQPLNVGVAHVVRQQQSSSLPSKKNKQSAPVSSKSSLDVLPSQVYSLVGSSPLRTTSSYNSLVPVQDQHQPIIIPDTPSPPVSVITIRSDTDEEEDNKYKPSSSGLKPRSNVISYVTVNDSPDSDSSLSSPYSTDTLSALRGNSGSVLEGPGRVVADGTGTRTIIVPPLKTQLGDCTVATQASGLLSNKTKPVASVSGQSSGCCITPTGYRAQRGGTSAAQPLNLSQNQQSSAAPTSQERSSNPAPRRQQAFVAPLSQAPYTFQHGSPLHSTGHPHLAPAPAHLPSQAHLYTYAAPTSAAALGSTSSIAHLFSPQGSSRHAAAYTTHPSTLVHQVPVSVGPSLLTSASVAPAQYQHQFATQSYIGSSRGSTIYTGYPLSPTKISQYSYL

[9] = test system: Tyrosine-protein kinase ABL1 (Homo sapiens), P00519 [F317I]; details: Compound concentration 1000.0 nM
[10] = target: Mitogen-activated protein kinase kinase kinase kinase 5 (Homo sapiens) (UniProt Q9Y4K4); details: Compound concentration 1000.0 nM
[11] = target: Tyrosine-protein kinase Mer (Homo sapiens) (UniProt Q12866); details: Compound concentration 1000.0 nM
[12] = target: Cyclin-dependent kinase 5 (Homo sapiens) (UniProt Q00535); details: Compound concentration 1000.0 nM
Cyclin-dependent kinase 5 (Homo sapiens), sequence (Q00535 whole entry, looked up): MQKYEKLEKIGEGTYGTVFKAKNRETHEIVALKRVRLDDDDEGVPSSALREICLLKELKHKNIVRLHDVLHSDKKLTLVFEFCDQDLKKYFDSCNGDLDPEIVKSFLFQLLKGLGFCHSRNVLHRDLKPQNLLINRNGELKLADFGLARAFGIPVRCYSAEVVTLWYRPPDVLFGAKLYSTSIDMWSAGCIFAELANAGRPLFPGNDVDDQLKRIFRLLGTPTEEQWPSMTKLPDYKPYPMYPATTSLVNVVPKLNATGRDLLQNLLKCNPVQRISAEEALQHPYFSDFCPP

[13] = test system: Tyrosine-protein kinase ABL1 (Homo sapiens), P00519 [F317I]; details: Compound concentration 1000.0 nM; remark: listed apart in the source
[14] = target: Bone morphogenetic protein receptor type-2 (Homo sapiens) (UniProt Q13873); details: Compound concentration 1000.0 nM
[15] = test system: Receptor-type tyrosine-protein kinase FLT3 (Homo sapiens), P36888 [UNDEFINED MUTATION]; details: Compound concentration 1000.0 nM
[16] = target: Serine/threonine-protein kinase RIO2 (Homo sapiens) (UniProt Q9BVS4); details: Compound concentration 1000.0 nM
[17] = target: Serine/threonine-protein kinase 10 (Homo sapiens) (UniProt O94804); details: Compound concentration 1000.0 nM
Serine/threonine-protein kinase 10 (Homo sapiens), sequence (O94804 whole entry, looked up): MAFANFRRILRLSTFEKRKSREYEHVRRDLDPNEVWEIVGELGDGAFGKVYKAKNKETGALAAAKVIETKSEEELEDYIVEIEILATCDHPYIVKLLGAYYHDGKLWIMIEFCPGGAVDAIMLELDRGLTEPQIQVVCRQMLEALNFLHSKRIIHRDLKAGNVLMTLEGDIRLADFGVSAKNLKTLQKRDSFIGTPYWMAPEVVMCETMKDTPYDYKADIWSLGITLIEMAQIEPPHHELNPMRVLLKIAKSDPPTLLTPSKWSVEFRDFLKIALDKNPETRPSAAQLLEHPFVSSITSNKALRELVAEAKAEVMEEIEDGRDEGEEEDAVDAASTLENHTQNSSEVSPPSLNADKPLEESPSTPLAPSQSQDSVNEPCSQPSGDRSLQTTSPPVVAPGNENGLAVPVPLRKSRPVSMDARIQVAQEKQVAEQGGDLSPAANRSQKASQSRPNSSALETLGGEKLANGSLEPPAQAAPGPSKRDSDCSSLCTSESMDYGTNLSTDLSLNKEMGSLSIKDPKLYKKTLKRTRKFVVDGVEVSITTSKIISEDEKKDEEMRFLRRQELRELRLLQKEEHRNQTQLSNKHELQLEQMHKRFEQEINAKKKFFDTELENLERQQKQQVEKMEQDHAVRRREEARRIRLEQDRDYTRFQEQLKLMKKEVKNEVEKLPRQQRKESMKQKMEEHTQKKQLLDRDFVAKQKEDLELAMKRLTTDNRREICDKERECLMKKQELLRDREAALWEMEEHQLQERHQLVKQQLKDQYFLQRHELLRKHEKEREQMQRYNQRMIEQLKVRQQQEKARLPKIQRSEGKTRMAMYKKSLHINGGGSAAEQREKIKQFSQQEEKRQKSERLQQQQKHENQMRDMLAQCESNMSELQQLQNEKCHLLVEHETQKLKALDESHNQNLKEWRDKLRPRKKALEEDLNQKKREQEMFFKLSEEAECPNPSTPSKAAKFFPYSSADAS

[18] = target: Tyrosine-protein kinase Fer (Homo sapiens) (UniProt P16591); details: Compound concentration 1000.0 nM
[19] = target: Serine/threonine-protein kinase pim-2 (Homo sapiens) (UniProt Q9P1W9); details: Compound concentration 1000.0 nM
[20] = target: Protein kinase C theta type (Homo sapiens) (UniProt Q04759); details: Compound concentration 1000.0 nM
[21] = target: Dual specificity protein kinase CLK1 (Homo sapiens) (UniProt P49759); details: Compound concentration 1000.0 nM
[22] = target: Phosphatidylinositol 4-kinase beta (Homo sapiens) (UniProt Q9UBF8); details: Compound concentration 1000.0 nM
Phosphatidylinositol 4-kinase beta (Homo sapiens), sequence (Q9UBF8 2-816 limits assumed): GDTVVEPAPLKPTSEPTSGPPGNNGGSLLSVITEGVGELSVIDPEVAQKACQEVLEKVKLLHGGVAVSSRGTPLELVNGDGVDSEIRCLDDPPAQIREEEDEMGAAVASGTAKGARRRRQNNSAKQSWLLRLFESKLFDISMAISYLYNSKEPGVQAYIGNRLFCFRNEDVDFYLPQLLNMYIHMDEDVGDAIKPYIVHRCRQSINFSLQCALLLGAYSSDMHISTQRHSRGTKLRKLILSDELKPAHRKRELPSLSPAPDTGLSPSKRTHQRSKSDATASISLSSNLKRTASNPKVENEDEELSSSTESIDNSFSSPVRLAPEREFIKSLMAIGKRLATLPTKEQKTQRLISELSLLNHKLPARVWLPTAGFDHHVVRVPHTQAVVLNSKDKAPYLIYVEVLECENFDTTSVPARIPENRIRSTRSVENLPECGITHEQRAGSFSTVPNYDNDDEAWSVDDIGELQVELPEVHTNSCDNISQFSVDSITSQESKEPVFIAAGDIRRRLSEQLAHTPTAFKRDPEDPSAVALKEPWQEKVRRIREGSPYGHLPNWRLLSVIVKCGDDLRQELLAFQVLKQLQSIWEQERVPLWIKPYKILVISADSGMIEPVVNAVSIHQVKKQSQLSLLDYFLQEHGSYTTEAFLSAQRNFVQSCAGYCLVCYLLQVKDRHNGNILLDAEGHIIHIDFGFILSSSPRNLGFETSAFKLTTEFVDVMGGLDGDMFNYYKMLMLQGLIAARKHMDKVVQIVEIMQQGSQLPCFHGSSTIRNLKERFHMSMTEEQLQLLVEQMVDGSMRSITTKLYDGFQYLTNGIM

[23] = target: Glycogen synthase kinase-3 alpha (Homo sapiens) (UniProt P49840); details: Compound concentration 1000.0 nM
[24] = target: Cyclin-dependent kinase 3 (Homo sapiens) (UniProt Q00526); details: Compound concentration 1000.0 nM
[25] = target: LIM domain kinase 2 (Homo sapiens) (UniProt P53671); details: Compound concentration 1000.0 nM
[26] = target: Serine/threonine-protein kinase D2 (Homo sapiens) (UniProt Q9BZL6); details: Compound concentration 1000.0 nM
[27] = target: Ephrin type-A receptor 4 (Homo sapiens) (UniProt P54764); details: Compound concentration 1000.0 nM
[28] = target: Dual specificity protein kinase CLK2 (Homo sapiens) (UniProt P49760); details: Compound concentration 1000.0 nM
[29] = target: Beta-3 adrenergic receptor (Homo sapiens) (UniProt P13945); details: Compound concentration 10.0 uM
[30] = target: Mitogen-activated protein kinase kinase kinase 5 (Homo sapiens) (UniProt Q99683); details: Compound concentration 1000.0 nM
[31] = target: Aurora kinase C (Homo sapiens) (UniProt Q9UQB9); details: Compound concentration 1000.0 nM
[32] = target: Serine/threonine-protein kinase/endoribonuclease IRE1 (Homo sapiens) (UniProt O75460); details: Compound concentration 1000.0 nM
[33] = target: Phosphatidylinositol 4-phosphate 5-kinase type-1 gamma (Homo sapiens) (UniProt O60331); details: Compound concentration 1000.0 nM
[34] = test system: Receptor-type tyrosine-protein kinase FLT3 (Homo sapiens), P36888 [K663Q]; details: Compound concentration 1000.0 nM
[35] = target: Cyclin-dependent kinase 11A (Homo sapiens) (UniProt Q9UQ88); details: Compound concentration 1000.0 nM
[36] = target: Myosin light chain kinase family member 4 (Homo sapiens) (UniProt Q86YV6); details: Compound concentration 1000.0 nM
Myosin light chain kinase family member 4 (Homo sapiens), sequence (Q86YV6 whole entry): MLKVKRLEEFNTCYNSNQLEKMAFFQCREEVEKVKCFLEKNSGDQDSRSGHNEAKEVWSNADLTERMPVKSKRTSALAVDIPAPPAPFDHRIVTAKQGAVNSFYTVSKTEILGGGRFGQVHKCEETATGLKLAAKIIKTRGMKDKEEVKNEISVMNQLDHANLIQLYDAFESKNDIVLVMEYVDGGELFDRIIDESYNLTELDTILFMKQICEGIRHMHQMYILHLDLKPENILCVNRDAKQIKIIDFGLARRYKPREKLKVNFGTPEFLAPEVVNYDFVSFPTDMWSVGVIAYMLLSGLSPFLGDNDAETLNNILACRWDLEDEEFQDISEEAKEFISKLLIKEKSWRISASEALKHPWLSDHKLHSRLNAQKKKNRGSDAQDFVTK

[37] = test system: Tyrosine-protein kinase ABL1 (Homo sapiens), P00519 [F317L]; details: Compound concentration 1000.0 nM
[38] = target: T1, Alpha-2A adrenergic receptor (Homo sapiens) (UniProt P08913); details: Compound concentration 10.0 uM
T1 sequence (whole entry): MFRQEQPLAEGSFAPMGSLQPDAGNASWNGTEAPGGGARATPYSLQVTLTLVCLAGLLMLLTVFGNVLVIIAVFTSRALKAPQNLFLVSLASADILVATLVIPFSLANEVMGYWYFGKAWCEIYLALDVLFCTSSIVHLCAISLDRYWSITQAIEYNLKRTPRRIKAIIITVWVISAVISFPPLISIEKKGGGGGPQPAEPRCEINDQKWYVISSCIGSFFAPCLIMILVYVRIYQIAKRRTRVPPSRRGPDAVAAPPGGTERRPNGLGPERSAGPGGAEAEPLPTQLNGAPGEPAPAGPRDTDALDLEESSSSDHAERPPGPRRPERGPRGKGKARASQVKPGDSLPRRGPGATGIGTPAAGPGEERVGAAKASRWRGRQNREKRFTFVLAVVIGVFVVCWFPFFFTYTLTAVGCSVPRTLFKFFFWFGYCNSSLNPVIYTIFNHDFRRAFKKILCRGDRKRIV

[39] = target: cAMP-dependent protein kinase catalytic subunit alpha (Homo sapiens) (UniProt P17612); details: Compound concentration 1000.0 nM

CC(=O)N1CCC(c2ccc(C(=O)NC3=NCCN3)cc2C(F)(F)F)CC1 [BI 0054]
inactive: residual activity [1] 100% | residual activity [2] 93% | residual activity [3] 67% | residual activity [4] 76% | residual activity [5] 100% | residual activity [6] 100% | residual activity [7] 89% | residual activity [8] 91% | residual activity [9] 94% | residual activity [10] 100% | residual activity [11] 100% | residual activity [12] 100% | residual activity [13] 77% | residual activity [14] 100% | residual activity [15] 100% | residual activity [16] 93% | residual activity [17] 100% | residual activity [18] 93% | residual activity [19] 100% | residual activity [20] 93% | residual activity [21] 100% | residual activity [22] 91% | residual activity [23] 78% | residual activity [24] 100% | residual activity [25] 98% | residual activity [26] 100% | residual activity [27] 100% | residual activity [28] 91% | inhibition [29] 8.52% | residual activity [30] 100% | residual activity [31] 100% | residual activity [32] 60% | residual activity [33] 99% | residual activity [34] 100% | residual activity [35] 100% | residual activity [36] 100% | residual activity [37] 95% | inhibition [38] 4.92% | residual activity [39] 100%

CC(=O)N1CCC(c2ccc(C(=O)NC(=N)N)cc2C(F)(F)F)CC1 [BI 9627]
inactive: residual activity [1] 86% | residual activity [2] 100% | residual activity [3] 100% | residual activity [4] 92% | residual activity [5] 83% | residual activity [6] 100% | residual activity [7] 100% | residual activity [8] 81% | residual activity [9] 96% | residual activity [10] 100% | residual activity [11] 81% | residual activity [12] 87% | residual activity [13] 92% | residual activity [14] 100% | residual activity [15] 91% | residual activity [16] 100% | residual activity [17] 94% | residual activity [18] 96% | residual activity [19] 100% | residual activity [20] 91% | residual activity [21] 100% | residual activity [22] 100% | residual activity [23] 97% | residual activity [24] 100% | residual activity [25] 91% | residual activity [26] 100% | residual activity [27] 100% | residual activity [28] 100% | inhibition [29] 5.47% | residual activity [30] 100% | residual activity [31] 100% | residual activity [32] 100% | residual activity [33] 100% | residual activity [34] 100% | residual activity [35] 92% | residual activity [36] 100% | residual activity [37] 92% | inhibition [38] -0.34% | residual activity [39] 100%
